Source: ChEMBL document CHEMBL4311962, “Benzofuran-isatin hybrids and their in vitro anti-mycobacterial activities against multi-drug resistant Mycobacterium tuberculosis” (Eur J Med Chem, 2019)

Key:
[1] = Cytotoxicity against CHO cells assessed as reduction in cell viability incubated for 72 hrs by MTT assay; format: cell-based, Cricetulus griseus; conditions: chinese hamster
[2] = Metabolic stability in SPF ICR mouse liver microsomes assessed as half life […]; format: ADME, Microsome
[3] = Elimination half life in SPF ICR mouse at 25 mg/kg, po administered as single dose measured for 0.25 to 24 hrs; format: ADME, organism-based; conditions: in vivo, read-out: beta t1/2 (converted)
[4] = Tmax in SPF ICR mouse at 25 mg/kg, po administered as single dose measured for 0.25 to 24 hrs; format: ADME, organism-based; conditions: in vivo
[5] = Cmax in SPF ICR mouse at 25 mg/kg, po administered as single dose measured for 0.25 to 24 hrs; format: ADME, organism-based; set-up: dose 25 mg/kg, route oral; conditions: in vivo
[6] = AUC (0 to infinity) in SPF ICR mouse at 25 mg/kg, po administered as single dose measured for 0.25 to 24 hrs; format: ADME, organism-based; set-up: dose 25 mg/kg, time infinity, route oral; conditions: in vivo

SMILES	CC50 at 72 h [1] [µM]	other results
CCOC(=O)c1c(-c2ccccc2)oc2ccc(OCCCN3C(=O)/C(=N/O)c4ccccc43)cc12	512	–
CCOC(=O)c1c(-c2ccc(F)cc2)oc2ccc(OCCCCCCN3C(=O)/C(=N/OC)c4ccccc43)cc12	128	–
CNC(=O)c1c(-c2ccc(O)cc2)oc2ccc(O)c(CN3CCCCC3)c12	> 1020	half-life [2]: > 1 h
CCOC(=O)c1c(-c2ccc(F)cc2)oc2ccc(OCCCN3C(=O)/C(=N/O)c4ccccc43)cc12	256	–
CCOC(=O)c1c(-c2ccccc2)oc2ccc(OCCCN3C(=O)C(=O)c4cc(OC)ccc43)cc12	512	–
CCOC(=O)c1c(-c2ccc(OC)cc2)oc2ccc(OCCCN3C(=O)C(=O)c4cc(F)ccc43)cc12	64	–
CCOC(=O)c1c(-c2ccc(F)cc2)oc2ccc(OCCCCCCN3C(=O)C(=O)c4cc(OC)ccc43)cc12	256	–
CCOC(=O)c1c(-c2ccccc2)oc2ccc(OCCCN3C(=O)/C(=N/O)c4cc(OC)ccc43)cc12	512	–
CCOC(=O)c1c(-c2ccc(F)cc2)oc2ccc(OCCCN3C(=O)C(=O)c4ccccc43)cc12	256	–
CCOC(=O)c1c(-c2ccc(F)cc2)oc2ccc(OCCCCCCN3C(=O)/C(=N\O)c4cc(OC)ccc43)cc12	512	–
CCOC(=O)c1c(-c2ccc(OC)cc2)oc2ccc(OCCCCCCN3C(=O)/C(=N/NC(N)=S)c4cc(F)ccc43)cc12	128	half-life [3]: 2.32 h; Tmax [4]: 1.81 h; Cmax [5]: 2540 ng/mL; half-life [2]: 0.29 h; AUC(0-inf) [6]: 3800 ng·h/mL
CCO/N=C1\C(=O)N(CCCCCCOc2ccc3oc(-c4ccc(F)cc4)c(C(=O)OCC)c3c2)c2ccc(OC)cc21	256	–
CCOC(=O)c1c(-c2ccc(F)cc2)oc2ccc(OCCN3C(=O)C(=O)c4cc(OC)ccc43)cc12	512	–
CCOC(=O)c1c(-c2ccccc2)oc2ccc(OCCN3C(=O)C(=O)c4cc(F)ccc43)cc12	64	–
CCOC(=O)c1c(-c2ccccc2)oc2ccc(OCCCCCCN3C(=O)C(=O)c4ccccc43)cc12	128	–
CCOC(=O)c1c(-c2ccc(OC)cc2)oc2ccc(OCCCCN3C(=O)C(=O)c4ccccc43)cc12	256	–
CCOC(=O)c1c(-c2ccc(OC)cc2)oc2ccc(OCCCCCN3C(=O)C(=O)c4ccccc43)cc12	128	–
CCOC(=O)c1c(-c2ccc(F)cc2)oc2ccc(OCCN3C(=O)C(=O)c4ccccc43)cc12	128	–
CCOC(=O)c1c(-c2ccccc2)oc2ccc(OCCCN3C(=O)C(=O)c4ccccc43)cc12	256	–
CCOC(=O)c1c(-c2ccc(F)cc2)oc2ccc(OCCN3C(=O)C(=O)c4cc(F)ccc43)cc12	64	–
NNC(=O)c1ccncc1 [ISONIAZID]	256	–
CO[C@H]1/C=C/O[C@@]2(C)Oc3c(C)c(O)c4c(O)c(c(/C=N/N5CCN(C)CC5)c(O)c4c3C2=O)NC(=O)/C(C)=C\C=C\[C@H](C)[C@H](O)[C@@H](C)[C@@H](O)[C@@H](C)[C@H](OC(C)=O)[C@@H]1C [RIFAMPIN]	512	–
